Assay results taken from patent publication US8258321B2, “Beta-lactone compounds” (Burnham Institute for Medical Research, priority 2007, dated 2012).
Where two headings read alike, the source gives them in different places.

Key:
MB-MDA-231 cells = test: Cell Viability Assay (MTS), MB-MDA-231; format: cell-based; conditions: 3 k 231, 48 h
Experimental: (§1) Cell Viability Assays for Determination of Test Compound Potencies
(§2) Plates were incubated for 2 h and absorbance was assayed at 490 nm. Background levels of formazan formation were measured in medium alone. IC50 values were derived from dose-response curves.

human fibroblast cells = test: Cell Viability Assay (MTS), human fibroblast cells (HFF); format: cell-based; conditions: 48 h
Experimental: as §1, §2

FAS TE = biological target: T1, FAS TE (Homo sapiens, UniProt P49327); test: Fluorogenic Assay for Detection of FASTE Inhibition (4-MUH substrate); format: biochemical; conditions: 500 nM FAS TE, 30 min pre-incubation at 37° C.
T1 construct: The unique carboxyl terminal thioesterase domain of fatty acid synthase
T1 sequence (P49327 2207-2511 limits assumed): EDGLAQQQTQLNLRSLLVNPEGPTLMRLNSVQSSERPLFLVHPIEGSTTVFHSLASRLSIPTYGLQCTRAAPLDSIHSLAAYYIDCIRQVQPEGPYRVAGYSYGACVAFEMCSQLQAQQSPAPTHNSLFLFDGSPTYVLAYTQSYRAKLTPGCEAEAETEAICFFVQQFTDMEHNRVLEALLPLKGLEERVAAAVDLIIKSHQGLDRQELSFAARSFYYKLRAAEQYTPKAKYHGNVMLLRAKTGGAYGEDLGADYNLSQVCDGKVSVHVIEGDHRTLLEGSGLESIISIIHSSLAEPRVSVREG
Experimental: Fluorogenic Assay for Detection of FASTE Inhibition
The synthetic fluorogenic substrate, 4-methylumbelliferyl heptanoate (4-MUH), was purchased from Sigma (St. Louis, Mo.). The reaction mixture consisted of 500 nM FAS TE in buffer (100 mM Tris-HCl, 50 mM NaCl at pH 7.4) which was pre-incubated with 2.5 μL test compounds dissolved in DMSO at final concentrations of […] and/or 0.08-10 μM at 37° C. for 30 minutes. […] 4-MUH incubated without enzyme served as a background control. Results are the average of triplicate time points.

[1] = Homo sapiens, Fibroblast, 3 k HFF, read-out: avg 3 k HFF IC50
[2] = Homo sapiens, Fibroblast, 50 k HFF, read-out: avg 50 k HFF IC50
[3] = 3 k HFF, read-out: avg 3 k HFF IC50
[4] = 50 k HFF, read-out: avg 50 k HFF IC50

Q: C/C=C/CC[C@@H](C[C@@H]1OC(=O)[C@H]1CCCCCC)OC(=O)[C@@H](NC=O)C(C)C was tested. Which IC50 (MB-MDA-231 cells; 48 h) did it give?
A: 23 µM

Q: And the IC50 (human fibroblast cells; [1])?
A: 35 µM

Q: What about the IC50 (human fibroblast cells; [2]) of the same molecule?
A: 27.6 µM

Q: For C=CCC[C@H](CC1OC(=O)[C@H]1CCCCCC)OC(=O)CNC=O (some centres unmarked) [listing 1 of 2 here], which IC50 (MB-MDA-231 cells; 48 h) is on record?
A: > 100 µM

Q: And the IC50 (human fibroblast cells; [1])?
A: > 100 µM

Q: What about the IC50 (human fibroblast cells; [2]) of the same molecule?
A: > 100 µM

Q: Which Ki (FAS TE) does the source give for C=CCC[C@H](C[C@@H]1OC(=O)[C@H]1CCCCCC)OC(=O)CNC=O here?
A: 0.53 µM

Q: What does the source list for CCCCCCCCCCCCC[C@@H](CC1OC(=O)[C@H]1CCCCCC)OC(=O)[C@H](Cc1cnc[nH]1)NC=O (some centres unmarked)?
A: Ki (FAS TE): 0.17 µM; IC50 (MB-MDA-231 cells; 48 h): 37.1 µM; IC50 (human fibroblast cells; [1]): 15.8 µM; IC50 (human fibroblast cells; [2]): 28 µM

Q: CCCCCCCCCCC[C@@H](C[C@@H]1OC(=O)[C@H]1CCCCCC)OC(=O)[C@H](CC(C)C)NC=O was tested. Which IC50 (MB-MDA-231 cells; 48 h) did it give?
A: 20.1 µM

Q: And the IC50 (human fibroblast cells; [1])?
A: > 100 µM

Q: What about the IC50 (human fibroblast cells; [2]) of the same molecule?
A: > 100 µM

Q: CCCCCCCCCCC[C@@H](C[C@@H]1OC(=O)[C@H]1CCCCCC)OC(=O)CNC=O was tested. Which IC50 (MB-MDA-231 cells; 48 h) did it give?
A: 4.8 µM

Q: What about the IC50 (human fibroblast cells; [1]) of the same molecule?
A: 19.9 µM

Q: What about the IC50 (human fibroblast cells; [2]) of the same molecule?
A: 27.6 µM

Q: CCCCCCC/C=C/CC[C@@H](C[C@@H]1OC(=O)[C@H]1CCCCCC)OC(=O)[C@H](CC(C)C)NC=O was tested. Which IC50 (MB-MDA-231 cells; 48 h) did it give?
A: 62.5 µM

Q: What about the IC50 (human fibroblast cells; [1]) of the same molecule?
A: 43.9 µM

Q: What about the IC50 (human fibroblast cells; [2]) of the same molecule?
A: 94.9 µM

Q: Which Ki (FAS TE) does the source give for C=CCC[C@@H](C[C@@H]1OC(=O)[C@H]1CCCCCC)OC(=O)[C@H](Cc1ccccc1)NC=O here?
A: 0.22 µM

Q: And the IC50 (MB-MDA-231 cells; 48 h)?
A: 24.5 µM

Q: What about the IC50 (human fibroblast cells; [1]) of the same molecule?
A: 73.6 µM

Q: And the IC50 (human fibroblast cells; [2])?
A: 65 µM

Q: CCCCCCCCCCC[C@@H](O)C[C@@H]1OC(=O)[C@H]1CCCCCC was tested. Which Ki (FAS TE) did it give?
A: 0.48 µM

Q: What about the IC50 (MB-MDA-231 cells; 48 h) of the same molecule?
A: 26.8 µM

Q: And the IC50 (human fibroblast cells; [1])?
A: 40.4 µM

Q: What about the IC50 (human fibroblast cells; [2]) of the same molecule?
A: 29.3 µM

Q: With CCCCCCCCCCC[C@H](C[C@@H]1OC(=O)[C@H]1CCCCCC)OC(=O)CNC=O as the molecule, how does the IC50 (MB-MDA-231 cells; 48 h) read?
A: 11.7 µM

Q: And the IC50 (human fibroblast cells; [1])?
A: 46.8 µM

Q: And the IC50 (human fibroblast cells; [2])?
A: 40.5 µM

Q: Which results are given for CCCCCC[C@@H]1C(=O)O[C@H]1C[C@H](CC/C=C/COCCOCCOCC(=O)OCc1ccccc1)OC(=O)[C@H](CC(C)C)NC=O?
A: Ki (FAS TE): 0.23 µM; IC50 (MB-MDA-231 cells; 48 h): 47.3 µM; IC50 (human fibroblast cells; [1]): 70.4 µM; IC50 (human fibroblast cells; [2]): > 100 µM

Q: For CCCCCCC/C=C/CC[C@@H](C[C@@H]1OC(=O)[C@H]1CCCCCC)OC(=O)[C@H](Cc1ccccc1)NC=O, which Ki (FAS TE) is on record?
A: 0.15 µM

Q: What about the IC50 (MB-MDA-231 cells; 48 h) of the same molecule?
A: > 100 µM

Q: What about the IC50 (human fibroblast cells; [1]) of the same molecule?
A: 24.9 µM

Q: What about the IC50 (human fibroblast cells; [2]) of the same molecule?
A: 35.9 µM

Q: CCCCCCCCCCC[C@H](C[C@@H]1OC(=O)[C@H]1CC)OC(=O)CNC=O was tested. Which Ki (FAS TE) did it give?
A: 0.23 µM

Q: What about the IC50 (MB-MDA-231 cells; 48 h) of the same molecule?
A: 1.3 µM

Q: And the IC50 (human fibroblast cells; [2])?
A: 9.7 µM

Q: How did the Ki (FAS TE) turn out when CCCCCC[C@@H]1C(=O)O[C@H]1C[C@H](CC/C=C/c1ccc(F)cc1)OC(=O)[C@H](CC(C)C)NC=O was run?
A: 0.15 µM

Q: What about the IC50 (MB-MDA-231 cells; 48 h) of the same molecule?
A: 14.1 µM

Q: And the IC50 (human fibroblast cells; [1])?
A: 32.9 µM

Q: What about the IC50 (human fibroblast cells; [2]) of the same molecule?
A: 49.9 µM

Q: Which results are given for C/C=C/CC[C@@H](C[C@@H]1OC(=O)[C@H]1CCCCCC)OC(=O)[C@H](Cc1ccccc1)NC=O?
A: Ki (FAS TE): 0.23 µM; IC50 (MB-MDA-231 cells; 48 h): 38.3 µM; IC50 (human fibroblast cells; [1]): 61.2 µM; IC50 (human fibroblast cells; [2]): 52.5 µM

Q: How did the IC50 (human fibroblast cells; [2]) turn out when CCCCCC[C@@H]1C(=O)O[C@H]1C[C@H](CCCCC)OC(=O)[C@@H](NC=O)C(C)C was run?
A: > 100 µM

Q: What does the source list for C/C=C/CC[C@H](C[C@@H]1OC(=O)[C@H]1CCCCCC)OC(=O)[C@@H](NC=O)C(C)C?
A: IC50 (human fibroblast cells; [1]): 101 µM; IC50 (human fibroblast cells; [2]): > 100 µM

Q: With C=CCC[C@H](CC1OC(=O)[C@H]1CCCCCC)OC(=O)CNC=O (some centres unmarked) [listing 2 of 2 here] as the molecule, how does the Ki (FAS TE) read?
A: 0.06 µM

Q: And the IC50 (MB-MDA-231 cells)?
A: 54 µM

Q: And the IC50 (human fibroblast cells; [3])?
A: > 100 µM

Q: What about the IC50 (human fibroblast cells; [4]) of the same molecule?
A: > 100 µM

Q: CCCCCCCCCCC[C@H](CC1OC(=O)[C@H]1CCCC)OC(=O)CNC=O (some centres unmarked) was tested. Which Ki (FAS TE) did it give?
A: 0.16 µM

Q: What about the IC50 (MB-MDA-231 cells; 48 h) of the same molecule?
A: 35.7 µM

Q: And the IC50 (human fibroblast cells; [1])?
A: 31.1 µM

Q: What about the IC50 (human fibroblast cells; [2]) of the same molecule?
A: 43.2 µM

Q: Which results are given for CCCCCC[C@@H]1C(=O)OC1C[C@@H](C)OC(=O)CNC=O (some centres unmarked)?
A: IC50 (MB-MDA-231 cells; 48 h): > 100 µM; IC50 (human fibroblast cells; [1]): > 100 µM; IC50 (human fibroblast cells; [2]): > 100 µM

Q: How did the Ki (FAS TE) turn out when CCCCCC[C@@H]1C(=O)O[C@H]1C[C@@H](C)OC(=O)CNC=O was run?
A: 0.09 µM

Q: With CCCCCC[C@@H]1C(=O)OC1C[C@@H](COS(=O)(=O)c1ccc(C)cc1)OC(=O)CNC=O (some centres unmarked) as the molecule, how does the IC50 (MB-MDA-231 cells; 48 h) read?
A: > 100 µM

Q: What about the IC50 (human fibroblast cells; [1]) of the same molecule?
A: > 100 µM

Q: What about the IC50 (human fibroblast cells; [2]) of the same molecule?
A: > 100 µM

Q: For CCCCCC[C@@H]1C(=O)O[C@H]1C[C@@H](COS(=O)(=O)c1ccc(C)cc1)OC(=O)CNC=O, which Ki (FAS TE) is on record?
A: 0.1 µM

Q: What does the source list for CCCCCCCCCCC[C@@H](CC1OC(=O)[C@H]1CC)OC(=O)CNC=O (some centres unmarked)?
A: IC50 (MB-MDA-231 cells; 48 h): 88.4 µM; IC50 (human fibroblast cells; [1]): > 100 µM; IC50 (human fibroblast cells; [2]): > 100 µM

Q: CCCCCCCCCCC[C@@H](C[C@@H]1OC(=O)[C@H]1CC)OC(=O)CNC=O was tested. Which Ki (FAS TE) did it give?
A: 0.16 µM

Q: What does the source list for C/C=C/CC[C@H](CC1OC(=O)[C@H]1CCCCCC)OC(=O)CNC=O (some centres unmarked)?
A: IC50 (MB-MDA-231 cells; 48 h): 57.3 µM; IC50 (human fibroblast cells; [1]): 39.9 µM; IC50 (human fibroblast cells; [2]): 37 µM

Q: With CCCCCCCCCCCCC[C@H](CC1OC(=O)[C@@H]1CCCCCC)OC(=O)CNC=O (some centres unmarked) as the molecule, how does the IC50 (MB-MDA-231 cells; 48 h) read?
A: > 100 µM

Q: What about the IC50 (human fibroblast cells; [1]) of the same molecule?
A: > 100 µM

Q: And the IC50 (human fibroblast cells; [2])?
A: > 100 µM

Q: How did the Ki (FAS TE) turn out when CCCCCCCCCCCCC[C@H](C[C@@H]1OC(=O)[C@@H]1CCCCCC)OC(=O)CNC=O was run?
A: 0.04 µM

Q: With CCCCCCCCCCC[C@@H](C[C@@H]1OC(=O)[C@H]1CCCCCC)OC(=O)c1ccccc1 [drawing 150] as the molecule, how does the IC50 (MB-MDA-231 cells) read?
A: > 100 µM

Q: What about the IC50 (human fibroblast cells; [3]) of the same molecule?
A: > 100 µM

Q: What about the IC50 (human fibroblast cells; [4]) of the same molecule?
A: > 100 µM

Q: CCCCCCCCCCC[C@@H](C[C@@H]1OC(=O)[C@H]1CCCCCC)OC(=O)CN(C)C [drawing 152] was tested. Which IC50 (MB-MDA-231 cells) did it give?
A: 26.9 µM

Q: What about the IC50 (human fibroblast cells; [3]) of the same molecule?
A: 37.3 µM

Q: What about the IC50 (human fibroblast cells; [4]) of the same molecule?
A: 49.3 µM

Q: With CCCCCCCCCCC[C@@H](C[C@@H]1OC(=O)[C@H]1CCCCCC)OC(=O)c1ccccc1 [drawing 169] as the molecule, how does the IC50 (MB-MDA-231 cells; 48 h) read?
A: > 100 µM

Q: What about the IC50 (human fibroblast cells; [1]) of the same molecule?
A: > 100 µM

Q: And the IC50 (human fibroblast cells; [2])?
A: > 100 µM

Q: What does the source list for CCCCCCCCCCC[C@@H](CC1OC(=O)[C@H]1CCCCCC)OC(=O)CN(C)C (some centres unmarked) [drawing 171]?
A: IC50 (MB-MDA-231 cells; 48 h): 52.1 µM; IC50 (human fibroblast cells; [3]): 105 µM; IC50 (human fibroblast cells; [2]): 75.6 µM
